9 compounds from patent publication US9067914B1, “Tropomyosin-related kinase (TRK) inhibitors” (Genzyme Corporation, priority 2013, dated 2015) can be followed below.

The target in one data set is TrkA (Homo sapiens (Human), UniProt P04629). Kind of data set: TrkA activity, off-chip mobility shift assay (LabChip 3000). The data set is classed as biochemical. The following applies: 55 μM ATP (ATP Km); n/d = none detected.
The next data set deals with TrkB (Homo sapiens (Human), UniProt Q16620). Kind of data set: TrkB activity, off-chip mobility shift assay (LabChip 3000). The data set is classed as biochemical. The following applies: 70 μM ATP (ATP Km); n/d = none detected.
Sequence of TrkB (Q16620 32-822): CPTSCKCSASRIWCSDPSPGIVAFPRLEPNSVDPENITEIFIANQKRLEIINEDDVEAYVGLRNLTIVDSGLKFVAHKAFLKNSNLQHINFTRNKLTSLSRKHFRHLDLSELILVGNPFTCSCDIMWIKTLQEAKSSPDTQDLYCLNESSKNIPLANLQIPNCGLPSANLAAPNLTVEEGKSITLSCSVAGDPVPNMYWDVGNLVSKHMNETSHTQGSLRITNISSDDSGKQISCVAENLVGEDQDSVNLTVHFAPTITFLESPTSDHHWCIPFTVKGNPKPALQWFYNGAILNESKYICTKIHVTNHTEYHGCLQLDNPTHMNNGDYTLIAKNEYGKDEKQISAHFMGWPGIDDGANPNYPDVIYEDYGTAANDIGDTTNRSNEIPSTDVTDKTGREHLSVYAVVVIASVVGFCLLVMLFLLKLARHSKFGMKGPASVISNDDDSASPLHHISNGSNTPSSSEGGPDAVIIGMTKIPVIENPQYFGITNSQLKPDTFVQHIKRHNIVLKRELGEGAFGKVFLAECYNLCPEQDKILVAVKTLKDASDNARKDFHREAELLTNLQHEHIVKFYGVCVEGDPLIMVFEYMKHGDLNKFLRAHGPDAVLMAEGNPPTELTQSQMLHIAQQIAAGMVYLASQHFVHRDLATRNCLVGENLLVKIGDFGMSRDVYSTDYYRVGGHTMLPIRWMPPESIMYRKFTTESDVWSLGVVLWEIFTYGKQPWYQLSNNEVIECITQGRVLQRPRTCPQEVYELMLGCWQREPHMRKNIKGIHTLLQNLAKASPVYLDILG
Data set [1] concerns PGPS knee arthritis in male Lewis rats. Briefly: Reactivated peptidoglycan-polysaccharide (PGPS) knee arthritis. The note with it: for Gait scores and deficiency, first reactivation / Gait scores and deficiency, second reactivation: significant reduction: male Lewis rats; for Gait scores and deficiency, first reactivation: days 1-4; for Gait scores and deficiency, second reactivation: significant reduction: days 14-18. It counts as in vivo, rat. The source says: Male Lewis rats were acclimated to the testing facility for 7 days. The rats were housed in 5 per cage in shoe-box polycarbonate cages with wire tops, wood chip bedding and suspended food and water bottles.
On day −21, the male Lewis rats were randomized into treatment groups by body weight. The rats were anesthetized and injected with peptidoglycan-polysaccharide (PGPS) into the right knee to induce PGPS arthritis. Arthritis was reactivated on days 0 and 14 by an IV tail injection of PGPS.
The rats were weighed at baseline on days 0, 4, 14 and 18. Knee thickness was measured by caliper at baseline and on days 0, 2, 4, 14, 16 and 18. Gait analysis occurred on days 0-4 and 14-18, with video recording of selected animals on days 3 and 17. Gait analysis was performed by applying ink to the ventral surface of the foot and documenting weight bearing during movement across paper.
The animals were terminated at day 18. Right knees were removed, trimmed of extraneous tissue, and collected into 10% neutral buffered formalin. After two days in the formalin buffer and three days in 10% formic acid decalcifier, the knees were cut into two approximately equal halves in the frontal plane and processed for paraffin embedding and stained with T.Blue. Histological examinations were subsequently performed for bone resorption, inflammation, pannus and cartilage damage.
Body weights, gait deficiency and caliper measurements were analyzed using a one-way analysis of variance (1-way ANOVA) with Dunnett's multiple comparison post-test. Gait scores were analyzed using a Kruskal-Wallis test (non-parametric ANOVA) with Dunn's multiple comparison post-test. Histopathology scores were analyzed using a Kruskal-Wallis test (non-parametric ANOVA) with Dunn's multiple comparison post-test.

The subject of data set [2] is MIA induced osteoarthritis in male Wistar rats. Briefly: Monosodium iodoacetate (MIA) induced osteoarthritis, weight bearing. The data set is classed as in vivo, rat. An excerpt: Male Wistar rats were acclimated to the testing facility for 5 days. The rats were individually housed in micro-isolator shoe-box polycarbonate cages with cob bedding and water bottles. Dry pelleted food of known composition and nutritional components was provided ad libitum
Animals were randomized by treatment type using an online random number generator. Each treatment group was assigned a number, entered into the random number generator, recorded then translated back to the associated treatment. All injections were given in the left leg unless the treatment indicated “Contralateral” in which case the injection was given in the right leg. Both legs were shaved on all animals at the time of the treatment injections to blind the test administrator.
The rats were weighed the day prior to injection with monosodium iodoacetate (MIA), the agent used to induce osteoarthritis in the animals. The day of injection, rats from groups 2-8 received a subcutaneous (SC) dose of buprenorphine at least one hour prior to induction. […] Naïve animals were then placed in recovery. All other animals received an injection of MIA. In animals receiving MIA, the hind leg was flexed and an injection of MIA (25 μL) was injected into the intra-articular space using a 27 gauge ½ inch needle. Standard postoperative care was performed (twice daily for 48 hours).
On Day 8 the test article was administered as described above. On Days −1, 7, 14, 21, 28, and 35 post-induction, weight bearing was assessed. A weight bearing scale was utilized using a plexiglass chamber to assess the amount of weight distributed in each hind limb. The animals were acclimated to the chamber for at least 5 minutes prior to testing and the weight distribution was recorded 5 times.
The animals were terminated at day 36. Both stifles were collected from each animal; the skin was removed from the joint and the patella was removed while leaving as much of the fat pad intact with the joint. The stifle was placed in the appropriate cassette with rolled gauze to secure the stifle in the cassette and then placed into 4% Paraformaldehyde. These samples were examined histologically.

The mark [3] stands for this setting: intra-articular on day -7 (Triamcinolone 0.06 mg; test compound 1 mg).
Where [4] appears, read: intra-articular on day -7, 1 mg.
Where [5] appears, read: right knee, day 18, intra-articular on day -7 (Triamcinolone 0.06 mg; test compound 1 mg).

Structures can show the parent of a compound that is named as a salt.

Sequence of TrkA (P04629 33-796): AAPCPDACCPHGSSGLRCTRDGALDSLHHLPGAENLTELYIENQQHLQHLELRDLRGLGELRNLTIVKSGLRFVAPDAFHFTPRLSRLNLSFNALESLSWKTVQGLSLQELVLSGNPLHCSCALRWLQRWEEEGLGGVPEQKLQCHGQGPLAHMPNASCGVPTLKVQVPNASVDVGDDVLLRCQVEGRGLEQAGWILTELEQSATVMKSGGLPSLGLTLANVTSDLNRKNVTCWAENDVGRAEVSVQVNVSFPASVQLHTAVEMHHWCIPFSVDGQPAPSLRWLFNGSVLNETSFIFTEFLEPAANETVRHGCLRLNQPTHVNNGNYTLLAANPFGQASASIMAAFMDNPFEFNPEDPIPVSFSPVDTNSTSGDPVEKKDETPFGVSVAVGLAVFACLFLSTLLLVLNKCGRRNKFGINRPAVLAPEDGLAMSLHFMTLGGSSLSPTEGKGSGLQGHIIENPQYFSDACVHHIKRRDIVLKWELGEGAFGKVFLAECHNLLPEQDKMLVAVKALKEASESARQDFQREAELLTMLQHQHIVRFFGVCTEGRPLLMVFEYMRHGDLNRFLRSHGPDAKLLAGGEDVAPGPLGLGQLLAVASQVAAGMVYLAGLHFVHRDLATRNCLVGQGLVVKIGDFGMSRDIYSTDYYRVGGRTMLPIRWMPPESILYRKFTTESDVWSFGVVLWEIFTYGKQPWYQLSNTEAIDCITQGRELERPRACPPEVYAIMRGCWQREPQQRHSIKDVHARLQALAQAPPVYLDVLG

The IC50 is the concentration that inhibits the measured activity by half. For the compound `COc1ccc(COc2ccc(Cn3c(N)nc4cc(-c5cnn(C)c5)cnc43)cc2OC)cc1` [Ex. 3-15, 3-(3-Methoxy-4-((4-methoxybenzyl)oxy)benzyl)-6-(1-methyl-1H-pyrazol-4-yl)-3H-imidazo[4,5-b]pyridin-2-amine], the concentration for half-maximal inhibition (IC50) at TrkA was found to be 0.3 nM. Also, the half-inhibitory concentration (IC50) at TrkB amounted to 0.1 nM. Also, in data set [1] (setting [3]), the Knee caliper measurements entry is given as “significantly reduced on day 14”; the “Reduction of knee caliper AUC” value was “generally unaffected”; the “Gait scores and deficiency, first reactivation” value is given as “significant reductions”; the “Gait scores and deficiency, second reactivation: significant reduction” value was “Scores were significantly reduced throughout the second reactivation, and reductions in deficiency were significant on days 15, 17, and 18”. In data set [1] (setting [4]), the “Reduction of gait scores and deficiency AUC, first reactivation” value is given as 92-93%; the “Reduction of gait scores and deficiency AUC, second reactivation” value is recorded as 85-86%; the “Reduction of summed AUC for gait deficiency” value was 84%. In data set [1] (setting [5]), the “Histopathology: reduction in summed scores” value was 70% and the “Histopathology: reductions in all parameters (bone resorption, inflammation, pannus, cartilage damage)” value is reported as 49-94%. Besides, in data set [2] (10 μg Contralateral injection on Day 8), the “Efficacy (weight bearing)” value is “efficacy at 3 and 4 weeks following administration”. For the same compound, the “Efficacy (weight bearing)” value in data set [2] (10 μg Ipsilateral injection on Day 8) is “efficacy was observed at 2 through 4 weeks following administration”. Also, the “Efficacy (weight bearing)” value in data set [2] (30 μg Contralateral injection on Day 8) is “efficacy at only the 3 week timepoint”. Besides, the “Efficacy (weight bearing)” value in data set [2] (30 μg Ipsilateral injection on Day 8) was “effective throughout the four weeks following administration”. Besides, in data set [2] (100 μg Contralateral injection on Day 8, 1-4 weeks), the “Systemic pain relief (weight bearing)” value is “did not show systemic pain relief at any timepoint”. Besides, the “Efficacy (weight bearing)” value in data set [2] (100 μg Ipsilateral injection on Day 8) is “effective throughout the four weeks following administration”. The “Comparison with MIA/LRS at day 35 (p<0.05)” value in data set [2] (Ipsilateral 30 μg) was “MIA/LRS was significantly worse”. For the same compound, in data set [2] (Ipsilateral 100 μg), the “Comparison with MIA/LRS at day 35 (p<0.05)” value was “MIA/LRS was significantly worse”. Further, the Body weight results in data set [2] (male Wistar rats, intra-articular on Day 8) was “No adverse observations”. Also, in data set [2] (stifles collected at day 36), the “Histopathology of the knee joint” value is recorded as “no adverse changes”.

As to `COc1cc(C(C)n2c(N)nc3cc(-c4cnn(C)c4)cnc32)ccc1OCc1ccc(C(F)(F)F)nc1` (stereo not shown) [Ex. 3-53, 3-(1-(3-methoxy-4-((6-(trifluoromethyl)pyridin-3-yl)methoxy)phenyl)ethyl)-6-(1-methyl-1H-pyrazol-4-yl)-3H-imidazo[4,5-b]pyridin-2-amine], the IC50 amounted to 0.4 nM on TrkA and 0.6 nM at TrkB.

Consider `COc1cc(C(C)n2c(N)nc3cc(C#CCCO)cnc32)ccc1OCc1ccc(C(F)(F)F)nc1` (stereo not shown) [Ex. 3-55, 4-(2-amino-3-(1-(3-methoxy-4-((6-(trifluoromethyl)pyridin-3-yl)methoxy)phenyl)ethyl)-3H-imidazo[4,5-b]pyridin-6-yl)but-3-yn-1-ol], for which the half-maximal inhibitory concentration (IC50) on TrkA and on TrkB was 1 nM in each case.

As for `COc1cc(Cn2cnc3cc(C#CCCO)cnc32)ccc1OCc1ccc(C(F)F)nc1` [Ex. 3-56, 4-(3-(4-((6-(difluoromethyl)pyridin-3-yl)methoxy)-3-methoxybenzyl)-3H-imidazo[4,5-b]pyridin-6-yl)but-3-yn-1-ol], the values for the half-inhibitory concentration (IC50) at TrkA and on TrkB were 17 nM and 4 nM, respectively.

Turning to `COc1ccc(C(C)Oc2ccc(Cn3cnc4cc(-c5cnn(C)c5)cnc43)cc2OC)cn1` (stereo not shown) [Ex. 3-57, 3-(3-methoxy-4-(1-(6-methoxypyridin-3-yl)ethoxy)benzyl)-6-(1-methyl-1H-pyrazol-4-yl)-3H-imidazo[4,5-b]pyridine formate], the half-maximal inhibitory concentration (IC50) was found to be 35 nM on TrkA and 13 nM at TrkB.

Consider `COc1ccc(C(C)Oc2ccc(Cn3cnc4cc(-c5ccnn5C)cnc43)cc2OC)cn1` (stereo not shown) [Ex. 3-58-1, 3-(3-methoxy-4-(1-(6-methoxypyridin-3-yl)ethoxy)benzyl)-6-(1-methyl-1H-pyrazol-5-yl)-3H-imidazo[4,5-b]pyridine formate], for which the IC50 at TrkA was 449 nM; at TrkB, 219 nM.

For `COc1ccc(-c2cnc3c(c2)ncn3Cc2ccc(OC(C)c3ccc(OC)nc3)c(OC)c2)cn1` (stereo not shown) [Ex. 3-58-2, 3-(3-methoxy-4-(1-(6-methoxypyridin-3-yl)ethoxy)benzyl)-6-(6-methoxypyridin-3-yl)-3H-imidazo[4,5-b]pyridine formate], the half-inhibitory concentration (IC50) on TrkA was 160 nM; on TrkB, 61 nM.

`COc1ccc(C(C)Oc2ccc(Cn3cnc4cc(-c5ccnc(F)c5)cnc43)cc2OC)cn1` (stereo not shown) [Ex. 3-58-3, 6-(2-fluoropyridin-4-yl)-3-(3-methoxy-4-(1-(6-methoxypyridin-3-yl)ethoxy)benzyl)-3H-imidazo[4,5-b]pyridine formate]: the values for the IC50 on TrkA and on TrkB were 215 nM and 68 nM, respectively.

As to `C[C@]12C=CC(=O)C=C1CC[C@H]1[C@@H]3C[C@@H](O)[C@](O)(C(=O)CO)[C@@]3(C)C[C@H](O)[C@@]12F` [Triamcinolone, reference compound], in data set [1] (setting [3]), the Knee caliper measurements entry is “significantly reduced on days 2, 4, 16, and 18, as well as prior to the first reactivation on day 0”; the “Reduction of knee caliper AUC” value is listed as 53-106%; the “Gait scores and deficiency, first reactivation” value is “significantly reduced”; the “Gait scores and deficiency, second reactivation: significant reduction” value is “on day 15, 17, and 18”. Moreover, the “Histopathology: reduction in summed scores” value in data set [1] (setting [5]) was 74%.
